Inconclusive results and toxic doses are left out.

This note sets out measurements from PubChem BioAssay AID192 (DTP/NCI, 2004).

The subject of this experiment is BDF1 mice, B16 melanoma ip, median survival T/C. Nature of the experiment: NCI In Vivo Anticancer Drug Screen. Data for tumor model B16 Melanoma (intraperitoneal) in B6D2F1 (BDF1) mice. The conditions noted are these: endpoint: median survival time, higher = longer survival. The procedure, abridged: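 Survival or tumor size is measured after treatment of tumor-bearing mice and normalised to the vehicle-treated control group.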

Where [1] appears, read: dose: 200.0 mg/kg/injection, schedule: Q01DX009 (ip), vehicle: Klucel (hydroxypropylcellulose) (HPC).
The mark [2] stands for this setting: dose: 50.0 mg/kg/injection, schedule: Q01DX009 (ip), vehicle: Klucel (hydroxypropylcellulose) (HPC).
The mark [3] stands for this setting: dose: 100.0 mg/kg/injection, schedule: Q01DX009 (ip), vehicle: Klucel (hydroxypropylcellulose) (HPC).
Where [4] appears, read: dose: 50.0 mg/kg/injection, schedule: Q01DX009 (ip), vehicle: saline with Tween-80.
[5] abbreviates: dose: 100.0 mg/kg/injection, schedule: Q01DX009 (ip), vehicle: saline with Tween-80.
Where [6] appears, read: dose: 200.0 mg/kg/injection, schedule: Q01DX009 (ip), vehicle: saline with Tween-80.
Where [7] appears, read: dose: 12.5 mg/kg/injection, schedule: Q01DX009 (ip), vehicle: Klucel (hydroxypropylcellulose) (HPC).
[8] abbreviates: dose: 25.0 mg/kg/injection, schedule: Q01DX009 (ip), vehicle: Klucel (hydroxypropylcellulose) (HPC).
[9] abbreviates: dose: 6.25 mg/kg/injection, schedule: Q01DX009 (ip), vehicle: saline with Tween-80.
The mark [10] stands for this setting: dose: 12.5 mg/kg/injection, schedule: Q01DX009 (ip), vehicle: saline with Tween-80.
Where [11] appears, read: dose: 25.0 mg/kg/injection, schedule: Q01DX009 (ip), vehicle: saline with Tween-80.

For `C=CCNCCN1CCN(CCCN2c3ccccc3Sc3ccc(C(F)(F)F)cc32)CC1`, the T/C is 105 % of control (dose: 6.25 mg/kg/injection, schedule: Q01DX009 (ip), vehicle: saline); 100 % of control (dose: 9.37 mg/kg/injection, schedule: Q04DX003 (ip), vehicle: saline); 110 % of control (dose: 12.5 mg/kg/injection, schedule: Q01DX009 (ip), vehicle: saline); 97 % of control (dose: 18.75 mg/kg/injection, schedule: Q04DX003 (ip), vehicle: saline); 91 % of control (dose: 55.0 mg/kg/injection, schedule: Q04DX003 (ip), vehicle: saline).
As to `CNC(=O)N(C)c1cc(N(C)C)nc(OC)n1`, the T/C (dose: 5.0 mg/kg/injection, schedule: Q01DX009 (ip), vehicle: Klucel (hydroxypropylcellulose) (HPC)) was 101 % of control; the T/C (dose: 10.0 mg/kg/injection, schedule: Q01DX009 (ip), vehicle: Klucel (hydroxypropylcellulose) (HPC)) was 93 % of control; the T/C (dose: 20.0 mg/kg/injection, schedule: Q01DX009 (ip), vehicle: Klucel (hydroxypropylcellulose) (HPC)) is 94 % of control.
Take `O=C1CN=C(c2ccccc2Cl)c2cc(Cl)ccc2N1`: the T/C (dose: 0.01 mg/kg/injection, schedule: Q01DX009 (ip), vehicle: Klucel (hydroxypropylcellulose) (HPC)) was 100 % of control; the T/C (dose: 0.02 mg/kg/injection, schedule: Q01DX009 (ip), vehicle: Klucel (hydroxypropylcellulose) (HPC)) is 86 % of control; the T/C (dose: 0.04 mg/kg/injection, schedule: Q01DX009 (ip), vehicle: Klucel (hydroxypropylcellulose) (HPC)) was 86 % of control; the T/C (dose: 0.09 mg/kg/injection, schedule: Q01DX009 (ip), vehicle: Klucel (hydroxypropylcellulose) (HPC)) was 86 % of control; the T/C (dose: 0.39 mg/kg/injection, schedule: Q01DX009 (ip), vehicle: Klucel (hydroxypropylcellulose) (HPC)) is 91 % of control; the T/C (dose: 0.78 mg/kg/injection, schedule: Q01DX009 (ip), vehicle: Klucel (hydroxypropylcellulose) (HPC)) was 88 % of control. Moreover, the T/C by setting is: (dose: 1.56 mg/kg/injection, schedule: Q01DX009 (ip), vehicle: Klucel (hydroxypropylcellulose) (HPC)) 86 % of control; (dose: 3.12 mg/kg/injection, schedule: Q01DX009 (ip), vehicle: Klucel (hydroxypropylcellulose) (HPC)) 89 % of control; under setting [1], 90 % of control; (dose: 0.6 micrograms/kg/injection, schedule: Q01DX009 (ip), vehicle: Klucel (hydroxypropylcellulose) (HPC)) 111 % of control; (dose: 1.2 micrograms/kg/injection, schedule: Q01DX009 (ip), vehicle: Klucel (hydroxypropylcellulose) (HPC)) 104 % of control; (dose: 2.5 micrograms/kg/injection, schedule: Q01DX009 (ip), vehicle: Klucel (hydroxypropylcellulose) (HPC)) 105 % of control. Moreover, the T/C is, setting by setting: (dose: 5.0 micrograms/kg/injection, schedule: Q01DX009 (ip), vehicle: Klucel (hydroxypropylcellulose) (HPC)) 95 % of control; (dose: 10.0 micrograms/kg/injection, schedule: Q01DX009 (ip), vehicle: Klucel (hydroxypropylcellulose) (HPC)) 112 % of control.
In the case of `CC1(C)N=C(N)N=C(N)N1c1cccc(CNC(=O)Nc2cccc(S(=O)(=O)F)c2)c1`, the T/C (dose: 50.0 mg/kg/injection, schedule: Q01DX009 (ip), vehicle: saline) was 101 % of control.
Turning to `[Cl][Pt+2][Br].[NH-]CC[NH-]`, the T/C reads like this: (dose: 0.47 mg/kg/injection, schedule: Q04DX003 (ip), vehicle: saline with Tween-80) 110 % of control; (dose: 0.5 mg/kg/injection, schedule: Q01DX009 (ip), vehicle: saline) 110 % of control; (dose: 0.95 mg/kg/injection, schedule: Q04DX003 (ip), vehicle: saline with Tween-80) 118 % of control; (dose: 1.0 mg/kg/injection, schedule: Q01DX009 (ip), vehicle: saline) 110 % of control; (dose: 1.9 mg/kg/injection, schedule: Q04DX003 (ip), vehicle: saline with Tween-80) 105 % of control; (dose: 2.0 mg/kg/injection, schedule: Q01DX009 (ip), vehicle: saline) 110 % of control.
Turning to `CC1(C)CCSC(/C=C/c2ccccc2)=N1`, the T/C was 96 % of control under setting [2], 94 % of control under setting [3] and 91 % of control under setting [1].
Take `O=C1CC2(CCCCC2)CO1`: the T/C reads like this: (dose: 0.09 mg/kg/injection, schedule: Q01DX009 (ip), vehicle: saline) 102 % of control; (dose: 0.19 mg/kg/injection, schedule: Q01DX009 (ip), vehicle: saline) 95 % of control; (dose: 0.39 mg/kg/injection, schedule: Q01DX009 (ip), vehicle: saline) 91 % of control; (dose: 0.78 mg/kg/injection, schedule: Q01DX009 (ip), vehicle: saline) 95 % of control; (dose: 1.56 mg/kg/injection, schedule: Q01DX009 (ip), vehicle: saline) 95 % of control.
As to `S=C(Cc1ccccc1)N1CCN(c2ccc(Cl)cc2)CC1`, the T/C reads like this: under setting [4], 100 % of control; under setting [5], 99 % of control; under setting [6], 93 % of control.
With `Cc1cc(=O)c2c(o1)-c1c(cc(O)c(O)c1C(=O)O)OC2`, the T/C reads like this: under setting [7], 101 % of control; under setting [8], 105 % of control; under setting [2], 105 % of control; under setting [3], 102 % of control; under setting [1], 106 % of control.
For `CC(=O)SCCCCl`, the T/C under setting [4] is 108 % of control, the T/C under setting [5] is 112 % of control and the T/C under setting [6] was 97 % of control.
As for `Cc1cc(/C=C\c2ccc3ccccc3[n+]2C)c(O)c2ncccc12`, the T/C was 106 % of control under setting [9], 101 % of control under setting [10] and 101 % of control under setting [11].
`CC(C)(C)C1CC(C(F)(F)F)(C(F)(F)F)OS(=O)O1` (stereo not given): the T/C is, setting by setting: (dose: 1.56 mg/kg/injection, schedule: Q04DX003 (ip), vehicle: saline) 102 % of control; (dose: 3.13 mg/kg/injection, schedule: Q04DX003 (ip), vehicle: saline) 115 % of control; (dose: 6.25 mg/kg/injection, schedule: Q04DX003 (ip), vehicle: saline) 105 % of control.
Regarding `COc1cccc2c1C(=O)c1c(O)c3c(c(O)c1C2=O)C[C@@](O)(/C(C)=N/NC(=O)c1ccc(S(N)(=O)=O)cc1)C[C@@H]3OC1CC(N)C(O)C(C)O1` (stereo not given in full), the T/C was 190 % of control (dose: 3.13 mg/kg/injection, schedule: Q01DX009 (ip), vehicle: water); 258 % of control (dose: 6.25 mg/kg/injection, schedule: Q01DX009 (ip), vehicle: water); 259 % of control (dose: 12.5 mg/kg/injection, schedule: Q01DX009 (ip), vehicle: water).
For `O=C(CCl)Nc1cc(C(F)(F)F)ccc1Cl`, the T/C under setting [9] is 103 % of control, the T/C under setting [10] was 95 % of control and the T/C under setting [11] is 93 % of control.
In the case of `O=C(CCl)c1ccc(O)c(O)c1`, the T/C under setting [7] was 94 % of control and the T/C under setting [8] is 87 % of control.
As to `CNC(Cc1ccccc1)c1ccccc1` (stereo not given), the T/C is 105 % of control under setting [8], 105 % of control under setting [2] and 113 % of control under setting [3].
Turning to `CCCCCOc1ccc(C(=O)CC(=O)OCC)cc1`, the T/C is 93 % of control under setting [3]; 106 % of control under setting [1]; 93 % of control (dose: 400.0 mg/kg/injection, schedule: Q01DX009 (ip), vehicle: Klucel (hydroxypropylcellulose) (HPC)).
Take `CCN(CC)CCNc1ccc(C)c2sc3ccccc3c(=O)c12`: the T/C is, setting by setting: (dose: 6.25 mg/kg/injection, schedule: Q01DX009 (ip), vehicle: suspension in saline) 103 % of control; (dose: 12.5 mg/kg/injection, schedule: Q01DX009 (ip), vehicle: suspension in saline) 105 % of control; (dose: 25.0 mg/kg/injection, schedule: Q01DX009 (ip), vehicle: suspension in saline) 103 % of control; (dose: 50.0 mg/kg/injection, schedule: Q01DX009 (ip), vehicle: suspension in saline) 102 % of control; (dose: 100.0 mg/kg/injection, schedule: Q01DX009 (ip), vehicle: suspension in saline) 120 % of control.
`Cc1ccc(C)c(C2NC(=O)c3ccccc3N2)c1` (stereo not given): the T/C is, setting by setting: under setting [3], 121 % of control; under setting [1], 115 % of control.
